Experimental data as given in US20090258836A1, “EFFECTIVE DELIVERY OF CROSS-SPECIES A3 ADENOSINE-RECEPTOR ANTAGONISTS TO REDUCE INTRAOCULAR PRESSURE” (The Trustees of The University of Pennsylvania, priority 2006, published 2009).
pKd: −log10 of the molar value. Entries after “also recorded” stand apart in the source; their conditions may differ.

Legend:
[1] = test system: intact rabbit ciliary epithelium; assay: Short-circuit current across intact rabbit ciliary epithelium (iris-ciliary body); settings: 30 μM IB-MECA, 5 mM Ba2+, solvent-corrected
Method: As an initial step in data analysis, 20-min period of baseline current just before addition of any agent was fit by linear least-squares analysis. The line generated by that analysis was extrapolated to a point 45 min beyond introduction of that agent. Each current response was subtracted from its respective extrapolated baseline to yield a common initial baseline approximating constant zero current. All recordings were placed in register relative to time of agent introduction (time 0). Records of control (solvent), IB-MECA with solvent, and B-MECA corrected for solvent were separately averaged. […]
Transepithelial Measurements: In animal experiments, preferably rabbits, after anesthetization and sacrifice (Carre et al., J. Membr. Biol. 146:293-305 (1995), the iris-ciliary body (1-CB) was enucleated and isolated as described by Carre et al., 1995. In one experiment, the pupil and central iris were occluded with a Lucite disc, and the iris-ciliary body was mounted between the two halves of a Lucite chamber. The annulus of exposed tissue provided a projected surface area of 0.93 cm^2. Preparations were continuously bubbled with 95%O2-5% CO2 for maintenance of pH 7.4 in a Ringer's solution comprising (in mM): 110.0 NaCl, 10.0 HEPES (acid), 5.0 HEPES (Na^+), 30.0 NaHCO3, 2.5 CaCl2, 1.2 MgCl2, 5.9 KCl, and 10.0 glucose, at an osmolality of 305 mOsm. […]

mouse IOP [2] = assay: Mouse IOP monitored with SNMS, protocols of Yang et al. 2005; type: in vivo
Method: Pharmacol. 65:1675-1684 (2003)), is effective both in blocking adenosine-triggered shrinkage of cultured human NPE cells and in lowering IOP of mice (Yang et al., supra, 2005). MRS-1292 was tested on the mouse for two reasons. Transgenic mice provide a convenient opportunity for studying the molecular physiology and pharmacology in the living animal ([…] al., supra, 2003). Second, measurement of IOP permitted us to assess the effects of MRS-1292 on the target parameter. […] Therefore, to directly assess the effect of MRS-1292 in vivo in the mouse, IOP was monitored before and after drug application. IOP was monitored with the Servo-Null-Micropipette System (SNMS). The test protocols are described in detail by Yang et al. supra, 2005, herein incorporated by reference. […] In comparison, addition of the same volume of saline at the same osmolality produced no significant change in IOP (-0.3±1.2 mmHg, n=6, p>0.8) 14 min later. […] To estimate an approximate range, “penetrance” was defined by Yang et al. as the ratio of the published Ki value at receptors in vitro to the minimally effective droplet concentration, for a number of adenosine agonists and antagonists. Thus, penetrance ranges from 1:100 to 1:1000 for purinergic drugs that have been tested in the mouse, and it is not very different from the drug penetrance of 1:100 for agents applied topically to rabbits and primates. This rule of thumb also applies to acylguanidine blockers and bumetanide, whose topical effects have also been studied in the mouse eye. Thus, the approximately 1:1000 penetrance that Yang et al. reported in the 2003 citation for MRS 1292 in the present experiments is consistent with past studies

[3] = test system: HCE (human ciliary epithelial) cell line, NPE cells; assay: Cell volume in isosmotic solution (isosmotic shrinkage), Coulter Counter; type: cell-based
Method: Cell Culture The HCE (human ciliary epithelial) cell line (Carre et al., supra, 1997) is an immortalized NPE cell line obtained from primary cultures of adult human epithelium. […] Eye Res. 57:3057-3063 (1993); Yantorno et al., Exp. Eye Res. 49:423-437 (1989)). […] Cells were passaged every 6-7 days and were studied 8-13 days after passage, after reaching confluence. An immortalized PE-cell line from a primary culture of bovine pigmented ciliary epithelium were also grown under matching conditions. Measurement of Cell Volume in Isosmotic Solution: The volume of PE and NPE cells was measured, since the movement of fluid underlies a change in PE and NPE cell volume, respectively. This is also thought to be the same as the movement of fluid which underlines the secretion of aqueous humor (FIG. 1). […] Parallel aliquots of cells were studied on the same day. One aliquot usually served as a control, and the others were exposed to different experimental conditions at the time of suspension. The same amount of solvent vehicle (dimethylformamide, DMSO or ethanol) was always added to the control and experimental aliquots. […] Cell volumes of isosmotic suspensions were measured with a Coulter Counter (model ZBI-Channelyzer II), using a 100 μm aperture (Civan et al., supra, 1994). As previously described (Wax et al., supra, 1993), the cell volume (vC) of the suspension was taken as the peak of the distribution function. Cell shrinkage was fit as a function of time (t) to a monoexpenential function: […]^0^)/τ] {1) where v∞ is the steady-state cell volume, v0 is the cell volume at the first point (t0) of the time course to be fit, and τ is the time constant of the shrinkage. For purposes of data reduction, the data were normalized to the first time point, taken to be 100% isotonic volume. Fits were obtained by nonlinear least-squares regression analysis, permitting both v∞ and τ to be variables. […] Med. Chem. 37:636-646 (1994; Jacobson et al., supra, 1995; Jacobson et al., FEBS Lett. 336:57-60 (1993)).

[4] = test system: C57 mouse intraocular pressure; assay: C57 mouse intraocular pressure, invasive servo-null technique; type: in vivo, C57 mice
mouse IOP [5] = assay: Mouse IOP after topical application, non-invasive pneumotonometry; type: in vivo, Black Swiss mice
Method: (§1) The test animals were black Swiss outbred mice of mixed sex, 7-9 weeks old and 25-30 g in weight, obtained from Taconic Inc. (Germantown, N.Y.), and maintained under 12:12-h light/dark illumination cycle and allowed unrestricted access to food and water. Mice were anesthetized with intraperitoneal ketamine ([…]) supplemented by topical proparacaine HCl 0.5% (Allergan, Bausch & Lomb) for the IOP measurements. IOP was measured invasively (SNMS) and non-invasively by pneumotonometry in separate animals.
By comparison, IOP was measured non-invasively by pneumotonometry (OBT) (Avila et al., supra, 2005). As previously described, the commercially available tip of the ocular blood tomography (OBT) pneumotonometer (Blood Flow Analyzer [BFA] probe tip; Paradigm Medical Industries Inc.) was fit to a custom-built mount. Air flow from a constant pressure source was passed through the mount to reach a diaphragm forming the end of the BFA tip. The flow of air displaces the diaphragm outward, permitting escape of the air through holes in the wall of the probe tip into the atmosphere. Pressure was monitored with a transducer connected through a T-connection to the base of the BFA tip. The probe assembly was advanced to the cornea with a three-axis micromanipulator. The probe tip was advanced sufficiently to make contact with the tear film, as was indicated by a shift in the baseline output reading. In a refined method, the tip was withdrawn until the […] was visually displaced from the tear film. The output was then adjusted to zero before advancing the tip again. Contact with the cornea depresses the diaphragm of the BFA tip, occluding access of the air flow to the escape holes and raising the pressure at the base of the tip.
This approach was simplified to expedite identification of the endpoint, and the probe was subsequently advanced in about 10 standardized steps of approximately […] at intervals of about 10 seconds to identify the inflection region (Wang et al., supra, 2006). […] The pneumotonometric estimates of IOP were previously found to agree with manometric measurements in cannulated preparations and with estimates obtained by the servo-null technique (Avila et al., supra, 2005). Having established the baseline value of IOP, the position along the axis of advance of the micromanipulator was noted, and the probe was retracted from contact with the cornea. Subsequent measurements of IOP at later time points were obtained by advancing the probe tip to the same position, with the placement of the mouse maintained stereotactically. The measurements were conducted at 10-min intervals to avoid potential artifacts associated with prolonged pressure on the cornea.
(§2) Ketamine HCl was purchased from Phoenix Pharmaceutical Inc. (St. Joseph, Mo.). Other drugs were obtained from Sigma Chemical (St. Louis, Mo.). Drugs were applied topically with an Eppendorf pipette. […] The final droplet solution contained the drugs at the stated concentrations together with <2% DMSO and 0.0005% benzalkonium chloride at an osmolality of 295-300 mOsm. DMSO was omitted, altogether, from droplets containing the hydrophilic compounds adenosine, carbachol and carboxyfluorescein.
(§3) Effects on invasively-measured IOP were measured 10 min after topical application because after this time, the continued presence of the micropipette can be associated with a downward drift of the IOP, even under control conditions. In contrast, smaller droplets ([…]) were applied to the eye more frequently (three times instead of once) with the non-invasive technique, in order to forestall drying of the eye associated with the airflow from the pneumotonometer. With the non-invasive protocol, the IOP was stable for 30 min under control conditions.
In Table 1, an endpoint of 10 minutes was used for the invasive measurements in light of the above-discussed downward drift of the IOP, even under control conditions. […]

mouse IOP [6] = assay: Mouse IOP after topical application, invasive servo-null micropipette system (SNMS); type: in vivo, Black Swiss mice
Method: as §1
By the SNMS approach (Avila et al., supra, 2001), the exploring micropipette, of […] outer diameter, was filled with a highly conducting solution and advanced across the cornea into the anterior chamber. A refined technique by Wang et al., Invest. Opthalmol. Vis. Sci. (serial online) (Aug. 31, 2006) available at www.iovs.org/egi/letters/46/9/3274#422, enhanced stability and reduce the background noise of the records, permitting fabrication of micropipettes whose resistance is 0.1-0.3 MΩ, rather than the 0.25-0.4 MΩ used initially. The filling solution was reduced from 3M KCl to 2M NaCl, rather than 3 M KCl. The resistance of the filled micropipette was balanced in a bridge circuit, and the tip was then advanced across the cornea. Upon entering the anterior chamber of the eye, the IOP forces the much lower-conducting aqueous humor into the micropipette tip, displacing the original filling solution. The micropipette resistance was thereby increased, unbalancing the bridge circuit and triggering a bellows to provide a counter-pressure, restoring the position of the filling solution and returning the resistance to its initial value. Thus, the value of the counter-pressure equals the IOP. As in the past (Avila et al., supra, 2001), the stability of the records permitted continuous measurements for tens of minutes during the course of drug applications.
as §2, §3
In Table 1, an endpoint of 10 minutes was used for the invasive measurements in light of the above-discussed downward drift of the IOP, even under control conditions. Also the need for smaller, more frequent droplets are discussed above with regard to the non-invasive technique using the pneumotonometer. As above, with the non-invasive protocol, the IOP was stable for 30 minutes under control conditions.

| SMILES | effect on short-circuit current [1] | increase in IOP (mouse IOP [2]; 140 nM) [mmHg] | increase in IOP (mouse IOP [2]; 10-fold lower concentration than 140 nM) [mm Hg] | change in IOP (mouse IOP [2]; droplet concentration 1400 nM) [mmHg] | τ time constant of the shrinkage ([3]; 100 nM) [min] | v∞ steady-state cell volume ([3]; 100 nM, normalized to first time point as 100% isotonic volume) [%] | effect of agonist on isosmotic volume of NPE cells ([3]; agonist 100 nM) | pKd ([3]; in the presence of gramicidin, read-out: apparent Kd for the IB-MECA-induced shrinkage) | IOP with MRS3771 ([4]; Mean ± SEM of 6 experiments) [mm Hg] | change in IOP ([4]; Mean ± SEM of 6 experiments) [mm Hg] | lowering of IOP of C57 mice ([4]; topical, N=6) [mm Hg] | effect on mouse IOP measured non-invasively (in words) (mouse IOP [5]; pneumotonometry, topical, MRS-3833 at 200 nM) | Δ(IOP) Pneumotonometer (mouse IOP [5]; topical droplets 250 μM (2% DMSO), 30 min) | effect on mouse IOP measured invasively (in words) (mouse IOP [6]; servo-null, topical) | effect on IOP in the mouse (in words) (mouse IOP [6]; tested by the inventors, technique not given) | Δ(IOP) Servo-Null (mouse IOP [6]; topical droplet 250 μM (2% DMSO), endpoint 10 min) [mm Hg] |
| --- | --- | --- | --- | --- | --- | --- | --- | --- | --- | --- | --- | --- | --- | --- | --- | --- |
| CNC(=O)[C@H]1O[C@@H](n2cnc3c(NCc4cccc(I)c4)ncnc32)[C@H](O)[C@@H]1O [IB-MECA, N^6-(3-iodobenzyl)-adenosine-5′-N-methyluronamide] | increased the short circuit current; also recorded: produced a significant increase in the short-circuit current | 4.6±1.6 | 2.2±0.5 | −1.2±1.9 | 4.5 ± 0.6 | 95.6±0.2 | produced prompt shrinkage | 7.26 |  |  |  |  |  |  |  |  |
| CN(C)C(=O)[C@H]1O[C@@H](n2cnc3c(NCc4cccc(I)c4)nc(Cl)nc32)[C@H](O)[C@@H]1O [MRS-3771] |  |  |  |  |  |  |  |  | 13.2 ± 1.6 | −3.3 ± 0.6 | 3.3±0.6 | exerted no effect on IOP | +0.4 ± 0.6 mm Hg | effective in lowering mouse IOP | found to lower IOP in the mouse | −3.0 ± 1.1 |
